Data taken from patent US20100331305A1, “OXO-HETEROCYCLE FUSED PYRIMIDINE COMPOUNDS, COMPOSITIONS AND METHODS OF USE” (Genentech, Inc., priority 2009, published 2010).

Columns and labels:
[1] = molecular target: mTOR enzyme (mTOR(1360-2549)+GBL) (Homo sapiens, UniProt P42345); assay: In vitro mTOR kinase assay (TR-FRET); format: biochemical; conditions: 0.25 nM mTOR+GBL, 8 uM ATP; values tied to compounds by order of Table 1; 'x or y' = two alternative values for separated diastereomers of unassigned stereochemistry; read-out: activity level (Ki) in the mTOR kinase assay
How it was run: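 Compounds were tested in 10-point dose curves from 10 uM top final concentration. The reaction was stopped with 2 nM Tb-anti-p4E-BP1 (T37/T46) antibody plus 10 mM EDTA for 30 minutes, and phospho-4E-BP1 was detected by TR-FRET. Ki apparent was fitted with the Morrison ATP-competitive tight-binding equation.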

PC3 cells = assay: In vitro cell proliferation assay; format: cell-based, human; conditions: values tied to compounds by order of Table 1
How it was run: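 PC3 (or MDAMB361.1) cells, ~10^3/well, settled overnight, then exposed to compound for 3 days; viability read by CellTiter-Glo luminescence (RLU). Alternatively, 4-day compound exposure followed by Alamar Blue for 6 h, fluorescence 544/590 nm; EC50 from sigmoidal dose-response fit.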

[2] = Homo sapiens, PC-3, with PC3 cells

Chain of mTOR enzyme (mTOR(1360-2549)+GBL) (P42345 1360-2549, species assumed): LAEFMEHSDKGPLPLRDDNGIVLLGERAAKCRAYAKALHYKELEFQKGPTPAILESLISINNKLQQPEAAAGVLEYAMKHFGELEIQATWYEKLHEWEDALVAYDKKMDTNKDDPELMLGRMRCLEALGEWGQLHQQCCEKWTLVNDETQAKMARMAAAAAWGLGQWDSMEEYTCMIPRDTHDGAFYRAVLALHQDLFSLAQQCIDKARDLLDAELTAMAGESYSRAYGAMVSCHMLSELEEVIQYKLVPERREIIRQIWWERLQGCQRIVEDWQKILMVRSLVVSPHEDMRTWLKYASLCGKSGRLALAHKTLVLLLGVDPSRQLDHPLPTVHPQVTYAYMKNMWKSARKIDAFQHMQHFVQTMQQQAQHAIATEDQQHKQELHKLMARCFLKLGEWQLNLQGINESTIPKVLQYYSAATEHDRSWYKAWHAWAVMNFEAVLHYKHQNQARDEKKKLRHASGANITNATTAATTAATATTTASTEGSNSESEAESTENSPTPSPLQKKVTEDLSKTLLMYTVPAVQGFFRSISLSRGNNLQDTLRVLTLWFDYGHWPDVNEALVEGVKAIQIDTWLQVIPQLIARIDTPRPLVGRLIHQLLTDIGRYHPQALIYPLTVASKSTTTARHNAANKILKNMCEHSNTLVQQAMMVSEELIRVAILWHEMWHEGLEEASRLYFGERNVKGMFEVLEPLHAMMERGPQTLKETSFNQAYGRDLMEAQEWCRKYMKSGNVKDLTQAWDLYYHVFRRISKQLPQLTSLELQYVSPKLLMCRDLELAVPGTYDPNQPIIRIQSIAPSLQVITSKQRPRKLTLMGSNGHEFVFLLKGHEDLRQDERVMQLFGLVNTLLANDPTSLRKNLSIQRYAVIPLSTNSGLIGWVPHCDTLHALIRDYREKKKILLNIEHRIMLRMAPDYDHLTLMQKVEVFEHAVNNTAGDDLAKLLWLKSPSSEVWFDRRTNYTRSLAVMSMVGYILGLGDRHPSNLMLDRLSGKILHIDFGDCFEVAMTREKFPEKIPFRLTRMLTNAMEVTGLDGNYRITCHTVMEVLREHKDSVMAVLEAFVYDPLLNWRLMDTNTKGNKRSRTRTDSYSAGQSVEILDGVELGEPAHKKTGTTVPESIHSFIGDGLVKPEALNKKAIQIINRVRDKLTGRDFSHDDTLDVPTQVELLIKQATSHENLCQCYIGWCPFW
Chain of mTOR enzyme (mTOR(1360-2549)+GBL) (Q9BVC4 whole entry partner, species assumed): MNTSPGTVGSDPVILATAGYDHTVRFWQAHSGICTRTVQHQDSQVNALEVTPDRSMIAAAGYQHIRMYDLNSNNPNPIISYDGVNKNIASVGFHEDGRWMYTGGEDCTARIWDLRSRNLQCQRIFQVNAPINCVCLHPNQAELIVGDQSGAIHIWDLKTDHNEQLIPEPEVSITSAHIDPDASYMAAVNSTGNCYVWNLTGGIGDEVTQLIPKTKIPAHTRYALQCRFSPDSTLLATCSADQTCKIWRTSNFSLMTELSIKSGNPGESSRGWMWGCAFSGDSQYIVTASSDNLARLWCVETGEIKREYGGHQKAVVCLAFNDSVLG

SMILES | Ki [1] | EC50 (PC3 cells; [2]) | EC50 (PC3 cells; with PC3 cells)
C[C@H]1COCCN1c1nc(-c2ccc(Nc3nccc(=O)[nH]3)cc2)nc2c1CCC1(CC1)O2 [Example 55, (S)-2-(4-(4′-(3-methylmorpholino)-5′,6′-dihydrospiro[cyclopropane-1,7′-pyrano[2,3-d]pyrimidine]-2′-yl)phenylamino)pyrimidin-4(3H)-one] | 0.2 nM | 15 nM | 
CNC(=O)Nc1ccc(-c2nc3c(c(N4CCOC[C@@H]4C)n2)CCC2(CC2)O3)cc1 [Example 56, (S)-1-methyl-3-(4-(4′-(3-methylmorpholino)-5′,6′-dihydrospiro[cyclopropane-1,7′-pyrano[2,3-d]pyrimidine]-2′-yl)phenyl)urea] | 1 nM | 37 nM | 
C[C@H]1COCCN1c1nc(-c2ccc(NC(=O)NCCS(C)(=O)=O)cc2)nc2c1CCC1(CC1)O2 [Example 57, (S)-1-(4-(4′-(3-methylmorpholino)-5′,6′-dihydrospiro[cyclopropane-1,7′-pyrano[2,3-d]pyrimidine]-2′-yl)phenyl)-3-(2-(methylsulfonyl)ethyl)urea] | 5 nM | 595 nM | 
CNC(=O)Nc1ccc(-c2nc3c(c(N4CCOC[C@@H]4C)n2)COCC3)cc1 [Example 58, (S)-1-methyl-3-(4-(4-(3-methylmorpholino)-7,8-dihydro-5H-pyrano[4,3-d]pyrimidin-2-yl)phenyl)urea] | 7 nM | 173 nM | 
C[C@H]1COCCN1c1nc(-c2ccc(NC(=O)NCCS(C)(=O)=O)cc2)nc2c1COCC2 [Example 59, (S)-1-(4-(4-(3-methylmorpholino)-7,8-dihydro-5H-pyrano[4,3-d]pyrimidin-2-yl)phenyl)-3-(2-(methylsulfonyl)ethyl)urea] | 46 nM | 4000 nM | 
C[C@H]1COCCN1c1nc(-c2ccc(NC(=O)NCCO)cc2)nc2c1CCC1(CC1)O2 [Example 65, (S)-1-(2-hydroxyethyl)-3-(4-(4′-(3-methylmorpholino)-5′,6′-dihydrospiro[cyclopropane-1,7′-pyrano[2,3-d]pyrimidine]-2′-yl)phenyl)urea] | 0.4 nM | 19 nM | 
C[C@H]1COCCN1c1nc(-c2ccc(NC(=O)NCCC#N)cc2)nc2c1CCC1(CC1)O2 [Example 66, (S)-1-(2-cyanoethyl)-3-(4-(4′-(3-methylmorpholino)-5′,6′-dihydrospiro[cyclopropane-1,7′-pyrano[2,3-d]pyrimidine]-2′-yl)phenyl)urea] | 2 nM | 99 nM | 
CONC(=O)Nc1ccc(-c2nc3c(c(N4CCOC[C@@H]4C)n2)CCC2(CC2)O3)cc1 [Example 67, (S)-1-methoxy-3-(4-(4′-(3-methylmorpholino)-5′,6′-dihydrospiro[cyclopropane-1,7′-pyrano[2,3-d]pyrimidine]-2′-yl)phenyl)urea] | 10 nM | 853 nM | 
C[C@H]1COCCN1c1nc(-c2ccc(NC(=O)NC[C@H](O)CO)cc2)nc2c1CCC1(CC1)O2 [Example 68, 1-((S)-2,3-dihydroxypropyl)-3-(4-(4′-((S)-3-methylmorpholino)-5′,6′-dihydrospiro[cyclopropane-1,7′-pyrano[2,3-d]pyrimidine]-2′-yl)phenyl)urea] | 3 nM | 804 nM | 
C[C@H]1COCCN1c1nc(-c2ccc(NC(=O)NC[C@@H](O)CO)cc2)nc2c1CCC1(CC1)O2 [Example 69, 1-((R)-2,3-dihydroxypropyl)-3-(4-(4′-((S)-3-methylmorpholino)-5′,6′-dihydrospiro[cyclopropane-1,7′-pyrano[2,3-d]pyrimidine]-2′-yl)phenyl)urea] | 2 nM | 1200 nM | 
C[C@H]1COCCN1c1nc(-c2ccc(NC(=O)NC3(CO)CC3)cc2)nc2c1CCC1(CC1)O2 [Example 70, (S)-1-(1-(hydroxymethyl)cyclopropyl)-3-(4-(4′-(3-methylmorpholino)-5′,6′-dihydrospiro[cyclopropane-1,7′-pyrano[2,3-d]pyrimidine]-2′-yl)phenyl)urea] | 20 nM | 1600 nM | 
O=C(Nc1ccc(-c2nc3c(c(N4[C@@H]5CC[C@H]4COC5)n2)CCC2(CC2)O3)cc1)NC1COC1 [Example 71, 1-(4-(4′-((1R,5S)-3-oxa-8-azabicyclo[3.2.1]octan-8-yl)-5′,6′-dihydrospiro[cyclopropane-1,7′-pyrano[2,3-d]pyrimidine]-2′-yl)phenyl)-3-(oxetan-3-yl)urea] | 2 nM | 479 nM | 
O=C(NCCO)Nc1ccc(-c2nc3c(c(N4[C@@H]5CC[C@H]4COC5)n2)CCC2(CC2)O3)cc1 [Example 72, 1-(4-(4′-((1R,5S)-3-oxa-8-azabicyclo[3.2.1]octan-8-yl)-5′,6′-dihydrospiro[cyclopropane-1,7′-pyrano[2,3-d]pyrimidine]-2′-yl)phenyl)-3-(2-hydroxyethyl)urea] | 1 nM | 173 nM | 
C=CC[C@]1(C)OCc2c(N3CCOCC3)nc(-c3ccc(NC(=O)NCC)cc3)nc21 [Example 73 eb (S), (S)-1-(4-(7-allyl-7-methyl-4-morpholino-5,7-dihydrofuro[3,4-d]pyrimidin-2-yl)phenyl)-3-ethylurea] | 2 nM | 37.6 nM | 
CCC[C@@]1(C)OCc2c(N3CCOCC3)nc(-c3ccc(NC(=O)NCC)cc3)nc21 [Example 73 ef (R), (R)-1-ethyl-3-(4-(7-methyl-4-morpholino-7-propyl-5,7-dihydrofuro[3,4-d]pyrimidin-2-yl)phenyl)urea] | 4 nM | 92 nM | 
CCC[C@]1(C)OCc2c(N3CCOCC3)nc(-c3ccc(NC(=O)NCC)cc3)nc21 [Example 73 ef (S), (S)-1-ethyl-3-(4-(7-methyl-4-morpholino-7-propyl-5,7-dihydrofuro[3,4-d]pyrimidin-2-yl)phenyl)urea] | 2 nM | 35 nM | 
CCNC(=O)Nc1ccc(-c2nc(N3CCOC[C@@H]3C)c3c(n2)[C@](C)(CCN2CCOCC2)OC3)cc1 [Example 76 eo (S), 1-ethyl-3-(4-((S)-7-methyl-4-((S)-3-methylmorpholino)-7-(2-morpholinoethyl)-5,7-dihydrofuro[3,4-d]pyrimidin-2-yl)phenyl)urea] | 293 nM | 45 nM | 
CCNC(=O)Nc1ccc(-c2nc(N3CCOC[C@@H]3C)c3c(n2)[C@@](C)(CCN(C)CC)OC3)cc1 [Example 78 eq (R), 1-ethyl-3-(4-((R)-7-(2-(ethyl(methyl)amino)ethyl)-7-methyl-4-((S)-3-methylmorpholino)-5,7-dihydrofuro[3,4-d]pyrimidin-2-yl)phenyl)urea] | 47 nM |  | 161 nM
CCNC(=O)Nc1ccc(-c2nc(N3CCOC[C@@H]3C)c3c(n2)[C@](C)(CCN(C)CC)OC3)cc1 [Example 78 eq (S), 1-ethyl-3-(4-((S)-7-(2-(ethyl(methyl)amino)ethyl)-7-methyl-4-((S)-3-methylmorpholino)-5,7-dihydrofuro[3,4-d]pyrimidin-2-yl)phenyl)urea] | 21 nM |  | 1300 nM
CCNC(=O)Nc1ccc(-c2nc(N3CCOC[C@@H]3C)c3c(n2)[C@](C)(CCN2CCC2)OC3)cc1 [Example 79 er (S), 1-(4-((S)-7-(2-(azetidin-1-yl)ethyl)-7-methyl-4-((S)-3-methylmorpholino)-5,7-dihydrofuro[3,4-d]pyrimidin-2-yl)phenyl)-3-ethylurea] | 31 nM | 774 nM | 
CCNC(=O)Nc1ccc(-c2nc(N3CCOC[C@@H]3C)c3c(n2)[C@@](C)(CCn2ccnc2C)OC3)cc1 [Example 81 et (R), 1-ethyl-3-(4-((R)-7-methyl-7-(2-(2-methyl-1H-imidazol-1-yl)ethyl)-4-((S)-3-methylmorpholino)-5,7-dihydrofuro[3,4-d]pyrimidin-2-yl)phenyl)urea] | 67 nM | 274 nM | 
CCCC1(C)OCc2c(N3CCOC[C@@H]3C)nc(-c3ccc(NC(=O)NCC)cc3)nc21 (stereo partly drawn) [Example 83, 1-ethyl-3-(4-(7-methyl-4-((S)-3-methylmorpholino)-7-propyl-5,7-dihydrofuro[3,4-d]pyrimidin-2-yl)phenyl)urea] | 2 nM | 84 nM | 
C=CC[C@@]1(C)OCc2c(N3CCOC[C@@H]3C)nc(-c3ccc(NC(=O)NCC)cc3)nc21 [Example 85 ek^2] | 2 nM | 66 nM | 
CCNC(=O)Nc1ccc(-c2nc3c(c(N4CCOC[C@@H]4C)n2)COC3)cc1 [Example 96, (S)-1-ethyl-3-(4-(4-(3-methylmorpholino)-5,7-dihydrofuro[3,4-d]pyrimidin-2-yl)phenyl)urea] | 9 nM | 28 nM | 
CCNC(=O)Nc1ccc(-c2nc3c(c(N4[C@@H]5CC[C@H]4COC5)n2)COC3)cc1 [Example 98, 1-(4-(4-((1R,5S)-3-oxa-8-azabicyclo[3.2.1]octan-8-yl)-5,7-dihydrofuro[3,4-d]pyrimidin-2-yl)phenyl)-3-ethylurea] | 8 nM | 331 nM | 
CC1(C)OCc2c(N3CCOCC3)nc(-c3ccc(N)nc3)nc21 [Example 102, 5-(7,7-dimethyl-4-morpholino-5,7-dihydrofuro[3,4-d]pyrimidin-2-yl)pyridin-2-amine] | 17 nM | 159 nM | 
C[C@H]1COCCN1c1nc(-c2cnc(N)nc2)nc2c1COC2(C)C [Example 103, (S)-5-(7,7-dimethyl-4-(3-methylmorpholino)-5,7-dihydrofuro[3,4-d]pyrimidin-2-yl)pyrimidin-2-amine] | 15 nM | 41 nM | 
C[C@H]1COCCN1c1nc(-c2cnc(N)nc2)nc2c1CO[C@@]2(C)CCOc1ccccc1 [Example 104 gs (S), 5-((S)-7-methyl-4-((S)-3-methylmorpholino)-7-(2-phenoxyethyl)-5,7-dihydrofuro[3,4-d]pyrimidin-2-yl)pyrimidin-2-amine] | 231 nM | 145 nM | 
